Measured values from BigSolDB 2.1.

CC1=NN(c2ccccc2)C(=O)C1
solubility (mole fraction)
Conditions | 283.15 K | 288.15 K | 293.15 K | 298.15 K | 303.15 K | 308.15 K | 313.15 K | 318.15 K | 323.15 K | 328.15 K
in 1,2-dichloroethane | 0.0262 | 0.0304 | 0.0358 | 0.0417 | 0.0496 | 0.058 | 0.0676 | 0.0767 | 0.089 | –
in 2-butanone | 0.02 | 0.024 | 0.0313 | 0.0372 | 0.0437 | 0.0557 | 0.0678 | 0.081 | 0.121 | –
in MIBK | 0.0107 | 0.0138 | 0.0198 | 0.0243 | 0.0311 | 0.0365 | 0.0414 | 0.0495 | 0.0609 | –
in dimethyl carbonate | 0.0118 | 0.0138 | 0.0166 | 0.0201 | 0.0257 | 0.0316 | 0.0384 | 0.0458 | 0.0573 | –
in ethyl lactate | 0.0293 | 0.0319 | 0.0352 | 0.0392 | 0.0424 | 0.0486 | 0.0531 | 0.0594 | 0.0735 | –
in isobutyl acetate | – | 0.0109 | 0.0123 | 0.0142 | 0.0162 | 0.0192 | 0.0229 | 0.0268 | 0.0309 | 0.0367
in isopentanol | 0.0191 | 0.021 | 0.023 | 0.0261 | 0.0282 | 0.0312 | 0.0353 | 0.0403 | 0.0466 | –
in isopropyl acetate | 0.00972 | 0.0117 | 0.0141 | 0.0162 | 0.0187 | 0.0223 | 0.0265 | 0.032 | 0.036 | –
in methyl acetate | 0.0161 | 0.0182 | 0.0201 | 0.0237 | 0.0266 | 0.0299 | 0.0349 | 0.0422 | 0.0477 | –
in n-butyl acetate | 0.0124 | 0.0142 | 0.0164 | 0.0195 | 0.0227 | 0.0265 | 0.0305 | 0.037 | 0.0423 | –
in n-hexane | 0.000173 | 0.000226 | 0.000394 | 0.00052 | 0.000662 | 0.000963 | 0.00136 | 0.00172 | 0.00211 | –
in n-propyl acetate | 0.0142 | 0.0169 | 0.0197 | 0.0228 | 0.0276 | 0.0318 | 0.0384 | 0.0451 | 0.0551 | –
